Assay results reported in US9006450B2 (Boehringer Ingelheim International GmbH, priority 2010, dated 2015).

Molecular target: T1, human ACC2 (Homo sapiens, UniProt O00763)
T1 construct: made in house; host or cells: insect cells (baculoviral expression system)
Assay: ACC2 assay, spectrophotometric 384 well assay (NADH-linked, coupled lactate dehydrogenase/pyruvate kinase)
Type: biochemical
Conditions: ACC2 assay, hACC2 construct lacking 128 N-terminal amino acids, 25° C., 340 nm; read-out: IC50
In short: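 Human ACC2 lacking N-terminal 128 aa, baculovirus/insect-cell expressed, anion-exchange purified; 100 mM Tris pH 7.5, 10 mM citrate, 25 mM KHCO3, 1% DMSO. Started with 200 μM NADH and acetyl-CoA plus 500 μM ATP; PK/LDH-coupled A340 decrease read 15 min at 25° C. IC50 by nonlinear fit of low-control-subtracted slopes.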

T1 sequence (O00763 129-2458 limits assumed): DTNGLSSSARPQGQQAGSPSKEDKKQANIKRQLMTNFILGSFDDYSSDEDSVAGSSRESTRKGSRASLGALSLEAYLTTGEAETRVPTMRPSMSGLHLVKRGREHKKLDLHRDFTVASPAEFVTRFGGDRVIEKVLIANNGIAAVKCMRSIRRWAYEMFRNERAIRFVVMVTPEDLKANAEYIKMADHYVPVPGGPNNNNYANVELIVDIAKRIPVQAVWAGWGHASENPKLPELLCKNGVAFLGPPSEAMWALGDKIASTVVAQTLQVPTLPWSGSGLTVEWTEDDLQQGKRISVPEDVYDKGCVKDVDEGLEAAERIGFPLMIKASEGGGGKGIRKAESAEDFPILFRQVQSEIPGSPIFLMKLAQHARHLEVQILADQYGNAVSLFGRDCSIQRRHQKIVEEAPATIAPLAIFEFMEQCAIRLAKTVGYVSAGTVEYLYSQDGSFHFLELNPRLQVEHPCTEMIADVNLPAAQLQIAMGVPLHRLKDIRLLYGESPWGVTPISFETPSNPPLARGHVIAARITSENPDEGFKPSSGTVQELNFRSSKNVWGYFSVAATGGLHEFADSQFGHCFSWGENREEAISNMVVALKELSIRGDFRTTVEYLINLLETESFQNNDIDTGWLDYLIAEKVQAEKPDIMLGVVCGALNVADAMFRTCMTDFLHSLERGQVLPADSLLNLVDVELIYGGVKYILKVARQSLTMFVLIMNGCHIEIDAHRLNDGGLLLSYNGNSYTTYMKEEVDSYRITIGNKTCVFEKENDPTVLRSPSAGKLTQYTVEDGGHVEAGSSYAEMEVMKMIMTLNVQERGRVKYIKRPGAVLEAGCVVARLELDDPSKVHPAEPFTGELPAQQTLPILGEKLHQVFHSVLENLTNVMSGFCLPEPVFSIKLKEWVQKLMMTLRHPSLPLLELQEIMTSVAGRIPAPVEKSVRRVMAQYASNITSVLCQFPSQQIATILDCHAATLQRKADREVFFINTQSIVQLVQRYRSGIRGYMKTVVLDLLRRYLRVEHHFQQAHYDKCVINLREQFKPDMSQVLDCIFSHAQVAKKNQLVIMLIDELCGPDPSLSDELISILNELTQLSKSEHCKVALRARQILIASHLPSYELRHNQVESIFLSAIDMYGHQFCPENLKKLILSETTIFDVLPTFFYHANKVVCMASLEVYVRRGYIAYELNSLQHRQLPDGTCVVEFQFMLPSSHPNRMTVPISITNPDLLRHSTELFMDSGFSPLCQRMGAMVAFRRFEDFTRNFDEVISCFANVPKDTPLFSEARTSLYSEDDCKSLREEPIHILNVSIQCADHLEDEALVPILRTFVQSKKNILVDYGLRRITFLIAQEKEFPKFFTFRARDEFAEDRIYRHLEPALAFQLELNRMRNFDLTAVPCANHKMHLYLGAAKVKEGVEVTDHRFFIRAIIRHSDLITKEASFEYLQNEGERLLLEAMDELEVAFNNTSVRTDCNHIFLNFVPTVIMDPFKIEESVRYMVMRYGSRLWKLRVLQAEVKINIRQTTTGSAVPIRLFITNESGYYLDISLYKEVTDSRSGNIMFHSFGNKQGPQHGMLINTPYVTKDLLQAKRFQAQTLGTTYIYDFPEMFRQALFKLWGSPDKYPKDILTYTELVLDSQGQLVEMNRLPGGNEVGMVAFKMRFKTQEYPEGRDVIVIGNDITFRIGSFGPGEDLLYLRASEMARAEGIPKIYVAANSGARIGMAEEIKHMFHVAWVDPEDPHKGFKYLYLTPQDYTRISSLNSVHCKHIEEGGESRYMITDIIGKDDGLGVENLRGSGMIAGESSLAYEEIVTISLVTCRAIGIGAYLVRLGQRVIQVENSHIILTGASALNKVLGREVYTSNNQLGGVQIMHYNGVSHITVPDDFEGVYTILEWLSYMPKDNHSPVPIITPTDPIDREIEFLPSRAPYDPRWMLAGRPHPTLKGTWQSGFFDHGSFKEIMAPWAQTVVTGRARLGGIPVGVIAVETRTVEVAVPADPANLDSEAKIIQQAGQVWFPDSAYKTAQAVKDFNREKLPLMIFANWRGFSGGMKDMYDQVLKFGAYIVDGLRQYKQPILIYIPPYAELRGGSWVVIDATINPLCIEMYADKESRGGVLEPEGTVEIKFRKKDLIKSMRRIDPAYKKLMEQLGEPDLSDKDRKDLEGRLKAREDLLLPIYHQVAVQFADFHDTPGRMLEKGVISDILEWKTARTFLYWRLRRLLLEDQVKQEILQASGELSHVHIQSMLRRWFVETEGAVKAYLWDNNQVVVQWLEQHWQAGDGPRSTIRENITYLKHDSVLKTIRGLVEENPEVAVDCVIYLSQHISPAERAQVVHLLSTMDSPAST

IC50 [µM]	Compound
17.4	CC(=O)N[C@@H](C)c1ccc(C2CCN(c3ncc(C(=O)NC4(C#N)CC4)cn3)CC2)cc1 [Example 18.70]
14.8	CC(=O)N[C@@H](C)c1ccc(C2CCN(c3ncc(C(=O)N4CCC(C#N)CC4)cn3)CC2)cc1 [Example 18.71]
8.9	CNC(=O)CNC(=O)c1cnc(N2CCC(c3ccc([C@H](C)NC(C)=O)cc3)CC2)nc1 [Example 18.72]
17.9	CC(=O)N[C@@H](C)c1ccc(C2CCN(c3ncc(C(=O)NCCn4ccnc4)cn3)CC2)cc1 [Example 18.73]
24.5	CC(=O)N[C@@H](C)c1ccc(C2CCN(c3ncc(C(=O)N[C@H]4C[C@H](N)C4)cn3)CC2)cc1 [Example 18.74]
17.8	CC(=O)N[C@@H](C)c1ccc(C2CCN(c3ncc(C(=O)NCCC(C)O)cn3)CC2)cc1 (stereo partly shown) [Example 18.75]
4	CC(=O)N[C@@H](C)c1ccc(C2CCN(c3ncc(C(=O)N4CCC4)cn3)CC2)cc1 [Example 18.76]
1.7	CC(=O)N[C@@H](C)c1ccc(C2CCN(c3ncc(C(=O)NCC4CC4)cn3)CC2)cc1 [Example 18.77]
12.7	CC(=O)N[C@@H](C)c1ccc(C2CCN(c3ncc(C(=O)Nc4cc(C)on4)cn3)CC2)cc1 [Example 18.78]
16.7	CC(=O)N[C@@H](C)c1ccc(C2CCN(c3ncc(C(=O)NC4CCNCC4)cn3)CC2)cc1 [Example 18.79]
27.2	CC(=O)N[C@@H](C)c1ccc(C2CCN(c3ncc(C(=O)NCCC#N)cn3)CC2)cc1 [Example 18.80]
16.5	CC(=O)N[C@@H](C)c1ccc(C2CCN(c3ncc(C(=O)NC4CCN(C)C4)cn3)CC2)cc1 (stereo partly shown) [Example 18.81]
6.2	CC(=O)N[C@@H](C)c1ccc(C2CCN(c3ncc(C(=O)NCCC(N)=O)cn3)CC2)cc1 [Example 18.82]
8.7	CC(=O)N[C@@H](C)c1ccc(C2CCN(c3ncc(C(=O)NCC4OCCO4)cn3)CC2)cc1 [Example 18.83]
18.1	CC(=O)N[C@@H](C)c1ccc(C2CCN(c3ncc(C(=O)N(C)C4CCN(C)C4)cn3)CC2)cc1 (stereo partly shown) [Example 18.84]
11.3	CC(=O)N[C@@H](C)c1ccc(C2CCN(c3ncc(C(=O)Nc4ccc(CN(C)C)cc4)cn3)CC2)cc1 [Example 18.86]
16.6	CC(=O)N[C@@H](C)c1ccc(C2CCN(c3ncc(C(=O)N4CCCC4CN(C)C)cn3)CC2)cc1 (stereo partly shown) [Example 18.88]
1.2	CC(=O)N[C@@H](C)c1ccc(C2CCN(c3ncc(C(=O)N(C)c4ccccc4)cn3)CC2)cc1 [Example 18.89]
1.2	CCNC(=O)c1cnc(N2CCC(c3ccc([C@H](C)NC(C)=O)cc3)CC2)nc1 [Example 18.90]
0.91	CCN(CC)C(=O)c1cnc(N2CCC(c3ccc([C@H](C)NC(C)=O)cc3)CC2)nc1 [Example 18.91]
2.2	CC(=O)N[C@@H](C)c1ccc(C2CCN(c3ncc(C(=O)NCc4ccccc4)cn3)CC2)cc1 [Example 18.92]
0.8	CC(=O)N[C@@H](C)c1ccc(C2CCN(c3ncc(C(=O)N(C)Cc4ccccc4)cn3)CC2)cc1 [Example 18.93]

IC50 [µM]	Compound
2.2	CC(=O)N[C@@H](C)c1ccc(C2CCN(c3ncc(C(=O)N4CCOCC4)cn3)CC2)cc1 [Example 18.94]
0.19	CC(=O)N[C@@H](C)c1ccc(C2CCN(c3ncc(C(=O)Nc4ccccc4)cn3)CC2)cc1 [Example 18.95]
0.04	CC(=O)N[C@@H](C)c1ccc(C2CCN(c3ccnc(OC4CCC4)c3)CC2)cc1 [Example 19.2]
0.7	COCCOc1cc(N2CCC(c3ccc([C@H](C)NC(C)=O)cc3)CC2)ccn1 [Example 19.3]
0.07	CC(=O)N[C@@H](C)c1ccc(C2CCN(c3ccnc(OC4CCCC4)c3)CC2)cc1 [Example 19.4]
0.08	CC(=O)N[C@@H](C)c1ccc(C2CCN(c3ccnc(OCC(C)(C)C)c3)CC2)cc1 [Example 19.5]
0.08	CC(=O)N[C@@H](C)c1ccc(C2CCN(c3ccnc(OC4CCCCC4)c3)CC2)cc1 [Example 19.6]
0.59	CC(=O)N[C@@H](C)c1ccc(C2CCN(c3ccnc(OC(C)c4ccccc4)c3)CC2)cc1 (stereo partly shown) [Example 19.7]
1.5	COc1cccc(COc2cc(N3CCC(c4ccc([C@H](C)NC(C)=O)cc4)CC3)ccn2)c1 [Example 19.8]
1.3	CC(=O)N[C@@H](C)c1ccc(C2CCN(c3ccnc(OCCc4ccccc4)c3)CC2)cc1 [Example 19.9]
0.1	CC(=O)N[C@@H](C)c1ccc(C2CCN(c3ccnc(OCC4CC4)c3)CC2)cc1 [Example 19.10]
0.14	CC(=O)N[C@@H](C)c1ccc(C2CCN(c3ccnc(OCC4CCC4)c3)CC2)cc1 [Example 19.11]
0.18	CC(=O)N[C@@H](C)c1ccc(C2CCN(c3ccnc(OCCC4CC4)c3)CC2)cc1 [Example 19.12]
0.09	CCC(C)Oc1cc(N2CCC(c3ccc([C@H](C)NC(C)=O)cc3)CC2)ccn1 (stereo partly shown) [Example 19.13]
0.4	COCC(C)Oc1cc(N2CCC(c3ccc([C@H](C)NC(C)=O)cc3)CC2)ccn1 (stereo partly shown) [Example 19.14]
0.08	CC(=O)N[C@@H](C)c1ccc(C2CCN(c3ccnc(OCC4(C)CC4)c3)CC2)cc1 [Example 19.15]
0.27	CC(=O)N[C@@H](C)c1ccc(C2CCN(c3ccnc(O[C@H]4CCOC4)c3)CC2)cc1 [Example 19.16]
0.33	CC(=O)N[C@@H](C)c1ccc(C2CCN(c3ccnc(OC4CCOCC4)c3)CC2)cc1 [Example 19.17]
0.34	CC(=O)N[C@@H](C)c1ccc(C2CCN(c3ccnc(OCC4CCOC4)c3)CC2)cc1 (stereo partly shown) [Example 19.18]
0.11	CC(=O)N[C@@H](C)c1ccc(C2CCN(c3ccnc(OCC(F)F)c3)CC2)cc1 [Example 19.19]
0.13	CC(=O)N[C@@H](C)c1ccc(C2CCN(c3ccnc(O[C@@H]4CCOC4)c3)CC2)cc1 [Example 19.20]
0.22	CC(=O)N[C@@H](C)c1ccc(C2CCN(c3ccnc(OCCC(C)C)c3)CC2)cc1 [Example 19.21]

IC50 [µM]	Compound
0.12	CCCOc1cc(N2CCC(c3ccc([C@H](C)NC(C)=O)cc3)CC2)ccn1 [Example 19.23]
0.24	CCC(CC)Oc1cc(N2CCC(c3ccc([C@H](C)NC(C)=O)cc3)CC2)ccn1 [Example 19.24]
0.07	CC(=O)N[C@@H](C)c1ccc(C2CCN(c3ccnc(OC4CC=CC4)c3)CC2)cc1 [Example 19.25]
0.15	CC(=O)N[C@@H](C)c1ccc(C2CCN(c3ccnc(OCC4CC4(F)F)c3)CC2)cc1 (stereo partly shown) [Example 19.26]
0.41	CC(=O)N[C@@H](C)c1ccc(C2CCN(c3ccnc(OC(C)C4CC4)c3)CC2)cc1 (stereo partly shown) [Example 19.27]
0.23	CC(=O)N[C@@H](C)c1ccc(C2CCN(c3ccnc(OCC4(C#N)CC4)c3)CC2)cc1 [Example 19.28]
0.92	CC(=O)N[C@@H](C)c1ccc(C2CCN(c3ccnc(OCc4ccon4)c3)CC2)cc1 [Example 19.29]
0.54	CC(=O)N[C@@H](C)c1ccc(C2CCN(c3ccnc(OC4Cc5ccccc5C4)c3)CC2)cc1 [Example 19.30]
0.75	CC(=O)N[C@@H](C)c1ccc(C2CCN(c3ccnc(OCc4ccccc4F)c3)CC2)cc1 [Example 19.31]
0.27	CC(=O)N[C@@H](C)c1ccc(C2CCN(c3ccnc(OCc4cccc(F)c4)c3)CC2)cc1 [Example 19.32]
0.4	CC(=O)N[C@@H](C)c1ccc(C2CCN(c3ccnc(OCc4ccc(F)cc4)c3)CC2)cc1 [Example 19.33]
0.52	CC(=O)N[C@@H](C)c1ccc(C2CCN(c3ccnc(OCc4cccnc4)c3)CC2)cc1 [Example 19.34]
27.4	COc1ccc(COc2cc(N3CCC(c4ccc([C@H](C)NC(C)=O)cc4)CC3)ccn2)cc1 [Example 19.35]
1.2	CC(=O)N[C@@H](C)c1ccc(C2CCN(c3ccnc(OCc4ccccn4)c3)CC2)cc1 [Example 19.37]
1.2	CC(=O)N[C@@H](C)c1ccc(C2CCN(c3ccnc(OCc4ccncc4)c3)CC2)cc1 [Example 19.38]
0.6	CC(C)Oc1cc(N2CCC(c3ccc([C@H](C)NC(=O)C4CC4)cc3)CC2)ncn1 [Example 20.1, (S)-Cyclopropanecarboxylic acid (1-{4-[1-(6-isopropoxy-pyrimidin-4-yl)-piperidin-4-yl]-phenyl}-ethyl)-amide]
0.22	C[C@H](NC(=O)C1CC1)c1ccc(C2CCN(c3cc(OC4CCC4)ncn3)CC2)cc1 [Example 20.2]
0.18	CC(C)Oc1cc(N2CCC(c3ccc([C@H](C)NC(=O)N(C)C)cc3)CC2)ncn1 [Example 20.3]
0.19	C[C@H](NC(=O)N(C)C)c1ccc(C2CCN(c3cc(OC4CCC4)ncn3)CC2)cc1 [Example 20.4]
0.26	COc1nc(N2CCC(c3ccc([C@H](C)NC(C)=O)cc3)CC2)ncc1-c1ccccc1 [Example 21.1, (S)—N-(1-{4-[1-(4-Methoxy-5-phenyl-pyrimidin-2-yl)-piperidin-4-yl]-phenyl}-ethyl)-acetamide]
0.15	CC(=O)N[C@@H](C)c1ccc(C2CCN(c3ncc(-c4ccccc4)c(C)n3)CC2)cc1 [Example 21.2, (S)—N-(1-{4-[1-(4-Methyl-5-phenyl-pyrimidin-2-yl)-piperidin-4-yl]-phenyl}-ethyl)-acetamide]
0.32	CNc1nc(N2CCC(c3ccc([C@H](C)NC(C)=O)cc3)CC2)ncc1-c1ccccc1 [Example 21.3, (S)—N-(1-{4-[1-(4-Methylamino-5-phenyl-pyrimidin-2-yl)-piperidin-4-yl]-phenyl}-ethyl)-acetamide]

Compound	IC50 [µM]
CC(=O)N[C@@H](C)c1ccc(C2CCN(c3ccnc(OCC(C)C)c3)CC2)cc1 [Example 19.1, (S)—N-{1-[4-(2′-Isobutoxy-3,4,5,6-tetrahydro-2H-[1,4′]bipyridinyl-4-yl)-phenyl]-ethyl}-acetamide]	0.11
